# Source: patent publication EP2135604A1, “INFUSION PREPARATION FOR CANCER PATIENT” (Matsui, Hirofumi, priority 2007, dated 2008)
# Columns and labels:
# [1] = system: rat stomach cancer cell line (RGK-37); experiment: Culture in glucose-free, 3% glutamine medium, observation under a microscope; format: cell-based; settings: RGK-37 tumor cells, absence of glucose, 120 hours
# Experimental: (§1) A rat stomach mucous membrane cell line (RGM) and a rat stomach cancer cell line (RGK-37) were cultured in Gibco#11330-032 DMEM/F12 medium and Sigma#D6421 DMEM/F12 medium, respectively. Each culture was cultured in the absence of glucose and in the presence of 3% glutamine for 120 hours. Subsequently, the cells were observed under a microscope.
# [2] = system: rat stomach mucous membrane cell line (RGM); experiment: as above; format: cell-based; settings: RGM non-tumor cells, absence of glucose, 120 hours
# Experimental: as §1
# [3] = system: rat stomach mucous membrane cells; experiment: Chemical carcinogenesis with L-glutamine added to the growth medium; format: cell-based; settings: addition of L-glutamine to the growth medium
# [4] = system: rats infected with Helicobacter pylori; settings: reported by Patent Document 4; cited from earlier work
# [5] = system: rat stomach cancer cell line (RGK-37); experiment: BrdU uptake (ELISA) at different glucose concentrations in the growth medium; format: cell-based; settings: medium with 0, 0.3 or 1.3 g/L of glucose, 1%FBS, 1% L-glutamine, 24 hours, relative to 3 g/L glucose (= 1)
# Experimental: (§2) A rat stomach mucous membrane cell line (RGM) and a rat stomach cancer cell line (RGK-37) were cultured in Gibco#11330-032 DMEM/F12 medium and L-glutamine-free Sigma#D6421 DMEM/F12 medium, respectively. Each culture was supplemented with 10% FBS and was cultured during the logarithmic growth phase. The growth medium was then replaced with a growth medium containing 0, 0.3 or 1.3 g/L of glucose and supplemented with 1%FBS and 1% L-glutamine. After 24 hours of culturing, bromodeoxyuridine (BrdU) was added to each culture. 2 hours after the addition of BrdU, the BrdU uptake was measured by ELISA. The BrdU uptake for each culture is shown in Fig. 1 relative to the uptake obtained at a glucose concentration of 3 g/L (= 1).
# [6] = system: rat stomach mucous membrane cell line (RGM); experiment: as above; format: cell-based; settings: medium with 0, 0.3 or 1.3 g/L of glucose, 1%FBS, 1% L-glutamine, 24 hours, relative to 3 g/L glucose (= 1)
# Experimental: as §2
# [7] = system: tumor cell lines of rat and human stomach cancer; experiment: Protein levels at decreased glucose levels in the culture medium; format: cell-based; settings: rat stomach cancer tumor cell line; decreasing glucose levels in the culture medium
# [8] = system: tumor cell lines of rat and human stomach cancer; experiment: as above; format: cell-based; settings: human stomach cancer tumor cell line; decreasing glucose levels in the culture medium
# [9] = system: normal stomach mucous cell line of rat; experiment: as above; format: cell-based
SMILES,cell survival / apoptosis (microscope) [1],cell survival / apoptosis (microscope) ([1]; listed as glutamine),cell survival (microscope) [2],cell survival (microscope) ([2]; listed as glutamine),chemical carcinogenesis [3],onset of legions resembling stomach cancer [4],BrdU uptake [5],BrdU uptake [6],protein levels [7],protein levels [8],protein levels [9]
NC(=O)CC[C@H](N)C(=O)O [L-glutamine],apoptosis is induced,apoptosis was induced,can survive,survived,suppresses chemical carcinogenesis,ability to suppress the onset of legions resembling stomach cancer,,,,,
OC[C@H]1OC(O)[C@H](O)[C@@H](O)[C@@H]1O (some centres unmarked) [glucose],,,,,,,decreased relatively with decreasing concentrations of glucose,relatively constant,decreased protein levels,decreased protein levels,no changes
